What all share (format): functional
Assay [1] has as its system Staphylococcus aureus. Nature of the assay: Antibacterial activity against Staphylococcus aureus A15090.
For another assay, the system named is Streptococcus pneumoniae. Description: Antibacterial activity against Streptococcus pneumoniae A28272.
The subject of the next assay is Enterococcus faecalis. Nature of the assay: Antibacterial activity against Enterococcus faecalis A20688.
The test system of assay [2] is Staphylococcus aureus. Nature of the assay: Protective activity against Staphylococcus aureus A15090 infected in sc dosed mouse. As to conditions: read-out: PD50.

In brackets after ≈: the same amount, converted by molar mass.

MIC and ED50 data for four molecules are collected here from ChEMBL document CHEMBL1158734, “Chemical conversion of nocathiacin I to nocathiacin II and a lactone analogue of glycothiohexide alpha” (2005).

A word on the MIC: it is the smallest concentration in the dilution series that meets the test's criterion for growth inhibition. Turning to `CO/C(C)=C1/NC(=O)[C@H]([C@@H](C)O)NC(=O)c2csc(n2)-c2cc(O)c(-c3nc(C(N)=O)cs3)nc2-c2csc(n2)[C@@H]2COC(=O)c3c4c5c(cccc5n3O)COC(=O)[C@@H](O[C@H]3C[C@](C)(O)[C@H](N(C)C)[C@H](C)O3)[C@@H](OC4)[C@H](NC(=O)c3csc1n3)c1nc(cs1)C(=O)N2` [NOCATHIACIN IV], the MIC against Staphylococcus aureus [1] was found to be 3 ng/mL (≈ 2.19 nM); with Streptococcus pneumoniae, 1 ng/mL (≈ 0.731 nM); against Enterococcus faecalis, 7 ng/mL (≈ 5.12 nM). The ED50 in the assay on Staphylococcus aureus [2] was 1.07 mg/kg.
For `CO/C(C)=C1/NC(=O)[C@H]([C@@H](C)O)NC(=O)c2csc(n2)-c2cc(O)c(-c3nc(C(N)=O)cs3)nc2-c2csc(n2)[C@@H]2COC(=O)c3[nH]c4cccc5c4c3CO[C@H]([C@H](O[C@H]3C[C@](C)(O)[C@H](N(C)C)[C@H](C)O3)C(=O)OC5)[C@H](NC(=O)c3csc1n3)c1nc(cs1)C(=O)N2` [THIAZOMYCIN C], the figures for the MIC in the assay on Staphylococcus aureus [1], against Streptococcus pneumoniae and against Enterococcus faecalis were 60 ng/mL (≈ 44.4 nM), 30 ng/mL (≈ 22.2 nM) and 125 ng/mL (≈ 92.4 nM), respectively. In the assay with Staphylococcus aureus [2], the ED50 is 4.35 mg/kg.
Turning to `C=C(NC(=O)c1csc(-c2nc3c(cc2O)-c2nc(cs2)C(=O)N[C@@H]([C@@H](C)O)C(=O)N/C(=C(\C)OC)c2nc(cs2)C(=O)N[C@@H]2c4nc(cs4)C(=O)N[C@@H](COC(=O)c4[nH]c5cccc6c5c4CO[C@@H]2[C@H](O[C@H]2C[C@](C)(O)[C@H](N(C)C)[C@H](C)O2)C(=O)OC6)c2nc-3cs2)n1)C(N)=O` [NOCATHIACIN II], the MIC in the assay with Staphylococcus aureus [1] came to 7 ng/mL (≈ 4.92 nM); in the assay on Streptococcus pneumoniae, 0.5 ng/mL (≈ 0.352 nM); with Enterococcus faecalis it was 150 ng/mL (≈ 106 nM). Further, the ED50 in the assay on Staphylococcus aureus [2] is less than 0.62 mg/kg.
On the same counts, the results for `C=C(NC(=O)c1csc(-c2nc3c(cc2O)-c2nc(cs2)C(=O)N[C@@H]([C@@H](C)O)C(=O)N/C(=C(\C)OC)c2nc(cs2)C(=O)N[C@@H]2c4nc(cs4)C(=O)N[C@@H](COC(=O)c4c5c6c(cccc6n4O)COC(=O)[C@@H](O[C@H]4C[C@](C)(O)[C@H](N(C)C)[C@H](C)O4)[C@H]2OC5)c2nc-3cs2)n1)C(N)=O` [MJ347-81F4 A] are 7 ng/mL (≈ 4.87 nM), 2 ng/mL (≈ 1.39 nM), 30 ng/mL (≈ 20.9 nM) and 0.31 mg/kg.
